# Results reported in patent US20220409620A1, “REDUCING IMMUNOGENICITY TO PEGLOTICASE” (Horizon Pharma Rheumatology LLC, priority 2016, published 2022).
# Test system: adult patients with uncontrolled gout
# Assay: Serum uric acid (sUA) levels and sUA responder rate, open-label study of pegloticase with MTX (MIRROR OL)
# Assay type: in vivo, human
# Settings: mITT Population
# Description: The primary objective is to estimate the response rate during Month 6 (Weeks 20, 22, and 24), as measured by the sustained normalization of serum uric acid (SUA) to <6 mg/dL for at least 80% of the time during Month 6 in subjects receiving KXX with MTX.
# The primary efficacy outcome endpoint is the sustained normalization of SUA to <6 mg/dL for at least 80% of the time during month 6 (weeks 20, 22, and 24) in subjects receiving KXX with MTX. […] Participants who achieve this endpoint were classified as “responders.” Serum uric acid (SUA) responders may also be defined as participants achieving and maintaining SUA <6 mg/dL for at least 80% of the time during Month 6 (Weeks 20, 22, and 24).
# Blood samples may be collected prior to each pegloticase infusion for measurement of SUA levels using the Beckman Coulter AU System Uric Acid procedure. Participants were declared “non-responders” if there were SUA measures >6 mg/dL at 2 consecutive study visits beginning with the week 2 visit. […] This assumption and subsequent discontinuation of pegloticase was consistent with the protocol of large phase III randomized controlled trials and the product label. A formal stopping rule was 2 occasions of SUA levels of greater than 6 mg/dL.
# Clinical Chemistry—Blood samples were collected prior to each pegloticase infusion for measurement of SUA levels (primary efficacy parameter) using the Beckman Coulter AU System Uric Acid procedure. In this procedure uric acid is converted to hydrogen peroxide. Hydrogen peroxide reacts with reagent to produce a chromophore which is read bichromatically at 660/800 nm. The amount of dye formed is proportional to the uric acid concentration in the sample.
# Serum samples for measurement of SUA levels were collected at the Screening Visit, the Week −4 Visit (prior to the first dose of MTX), and the Week −2 Visit during the MTX Run-in Period; within 48 hours prior to each pegloticase infusion and after the end of each pegloticase infusion prior to discharge from the site during the Pegloticase+IMM Period; at the non-infusion Week 52/End of Study/Early Termination Visits and at the Post Treatment 3 and 6 Month Follow-up Visits. Additional serum samples for SUA levels were collected at optional non-infusion (Frequent Sampling) Visits at Weeks 1 and 7. […] Subjects with SUA level >6 mg/dL at 2 consecutive visits beginning at Week 2 visit discontinued treatment, completed the End of Pegloticase Infusion Visit procedures within 2 weeks and continued the subject visits according to the protocol (without treatment).
# Efficacy analyses were performed using the modified intention-to-treat (mITT) population, defined as all enrolled subjects who received ≥1 dose of pegloticase. The proportion of Month 6 responders was summarized, along with a 95% confidence interval for the proportion. The proportion of Month 3 and overall (Months 3 and 6 combined) responders was analyzed similarly.
# A subject was declared a non-responder if the subject had SUA level >6 mg/dL at 2 consecutive study visits beginning with the Week 2 Visit. In addition, a subject who withdraws from study treatment for any reason after the first dose of pegloticase in the KXX+MTX Period and prior to Month 6 (for the primary endpoint) or Month 3 (for the secondary endpoint) was considered a non-responder if SUA values were not collected at the planned time points.
# Patients were administered oral MTX (15 mg/week) and folate (1 mg/day) 4 weeks prior to the first pegloticase infusion (Day 1) and throughout the pegloticase treatment period. Blood was drawn prior to each infusion to measure sUA level, monitor clinical parameters, and examine for ADA development. All patients followed typical IR prophylaxis protocols (fexofenadine one day before and the morning of each infusion and acetaminophen and IV corticosteroid the morning of each infusion).
substance,measurement,setting,value
pegloticase,"Serum Uric Acid, Observed, Mean (SD)",Week 34 - Pre-Infusion,0.82 (1.046) mg/dL
same,"Serum Uric Acid, Observed, Median",Week 34 - Pre-Infusion,0.30 mg/dL
same,"sUA <6 mg/dL, n (%)",Week 34 - Pre-Infusion,10 (100%)
same,"Serum Uric Acid, Change from Baseline, Mean (SD)",Week 36 - Post-Infusion,−9.38 (3.799) mg/dL
same,"Serum Uric Acid, Change from Baseline, Median",Week 36 - Post-Infusion,-9.20 mg/dL
same,"Serum Uric Acid, Observed, Mean (SD)",Week 36 - Post-Infusion,0.30 (0.000) mg/dL
same,"Serum Uric Acid, Observed, Median",Week 36 - Post-Infusion,0.30 mg/dL
same,"sUA <6 mg/dL, n (%)",Week 36 - Post-Infusion,6 (100%)
same,"Serum Uric Acid, Change from Baseline, Mean (SD)",Week 36 - Pre-Infusion,−7.90 (4.094) mg/dL
same,"Serum Uric Acid, Change from Baseline, Median",Week 36 - Pre-Infusion,-8.60 mg/dL
same,"Serum Uric Acid, Observed, Mean (SD)",Week 36 - Pre-Infusion,1.58 (2.425) mg/dL
same,"Serum Uric Acid, Observed, Median",Week 36 - Pre-Infusion,0.30 mg/dL
same,"sUA <6 mg/dL, n (%)",Week 36 - Pre-Infusion,8 (88.9%)
same,"Serum Uric Acid, Change from Baseline, Mean (SD)",Week 38 - Pre-Infusion,−8.41 (5.229) mg/dL
same,"Serum Uric Acid, Change from Baseline, Median",Week 38 - Pre-Infusion,-8.60 mg/dL
same,"Serum Uric Acid, Observed, Mean (SD)",Week 38 - Pre-Infusion,0.93 (1.583) mg/dL
same,"Serum Uric Acid, Observed, Median",Week 38 - Pre-Infusion,0.30 mg/dL
same,"sUA <6 mg/dL, n (%)",Week 38 - Pre-Infusion,5 (100%)
same,"Serum Uric Acid, Change from Baseline, Mean (SD)",Week 40 - Pre-Infusion,−11.30 (3.686) mg/dL
same,"Serum Uric Acid, Change from Baseline, Median",Week 40 - Pre-Infusion,-9.80 mg/dL
same,"Serum Uric Acid, Observed, Mean (SD)",Week 40 - Pre-Infusion,0.30 (0.000) mg/dL
same,"Serum Uric Acid, Observed, Median",Week 40 - Pre-Infusion,0.30 mg/dL
same,"sUA <6 mg/dL, n (%)",Week 40 - Pre-Infusion,3 (100%)
same,"Serum Uric Acid, Change from Baseline, Mean (SD)",Week 42 - Pre-Infusion,−11.30 (3.686) mg/dL
same,"Serum Uric Acid, Change from Baseline, Median",Week 42 - Pre-Infusion,-9.80 mg/dL
same,"Serum Uric Acid, Observed, Mean (SD)",Week 42 - Pre-Infusion,0.30 (0.000) mg/dL
same,"Serum Uric Acid, Observed, Median",Week 42 - Pre-Infusion,0.30 mg/dL
same,"sUA <6 mg/dL, n (%)",Week 42 - Pre-Infusion,3 (100%)
same,"Serum Uric Acid, Change from Baseline, Mean (SD)",Week 44 - Pre-Infusion,−10.55 (4.625) mg/dL
same,"Serum Uric Acid, Change from Baseline, Median",Week 44 - Pre-Infusion,-9.80 mg/dL
same,"Serum Uric Acid, Observed, Mean (SD)",Week 44 - Pre-Infusion,1.05 (1.305) mg/dL
same,"Serum Uric Acid, Observed, Median",Week 44 - Pre-Infusion,0.30 mg/dL
same,"sUA <6 mg/dL, n (%)",Week 44 - Pre-Infusion,3 (100%)
same,"Serum Uric Acid, Change from Baseline, Mean (SD)",Week 46 - Pre-Infusion,−12.65 (4.031) mg/dL
same,"Serum Uric Acid, Change from Baseline, Median",Week 46 - Pre-Infusion,-12.65 mg/dL
same,"Serum Uric Acid, Observed, Mean (SD)",Week 46 - Pre-Infusion,0.30 (0.000) mg/dL
same,"Serum Uric Acid, Observed, Median",Week 46 - Pre-Infusion,0.30 mg/dL
same,"sUA <6 mg/dL, n (%)",Week 46 - Pre-Infusion,2 (100%)
same,"Serum Uric Acid, Change from Baseline, Mean (SD)",Week 48 - Post-Infusion,−10.33 (4.922) mg/dL
same,"Serum Uric Acid, Change from Baseline, Median",Week 48 - Post-Infusion,-9.80 mg/dL
same,"Serum Uric Acid, Observed, Mean (SD)",Week 48 - Post-Infusion,1.60 (2.252) mg/dL
same,"Serum Uric Acid, Observed, Median",Week 48 - Post-Infusion,0.30 mg/dL
same,"sUA <6 mg/dL, n (%)",Week 48 - Post-Infusion,3 (100%)
same,"Serum Uric Acid, Change from Baseline, Mean (SD)",Week 48 - Pre-Infusion,−12.65 (4.031) mg/dL
same,"Serum Uric Acid, Change from Baseline, Median",Week 48 - Pre-Infusion,-12.65 mg/dL
same,"Serum Uric Acid, Observed, Mean (SD)",Week 48 - Pre-Infusion,0.30 (0.000) mg/dL
same,"Serum Uric Acid, Observed, Median",Week 48 - Pre-Infusion,0.30 mg/dL
same,"sUA <6 mg/dL, n (%)",Week 48 - Pre-Infusion,2 (100%)
same,"Serum Uric Acid, Change from Baseline, Mean (SD)",Week 50 - Post-Infusion,−10.57 (4.598) mg/dL
same,"Serum Uric Acid, Change from Baseline, Median",Week 50 - Post-Infusion,-9.80 mg/dL
same,"Serum Uric Acid, Observed, Mean (SD)",Week 50 - Post-Infusion,1.37 (1.848) mg/dL
same,"Serum Uric Acid, Observed, Median",Week 50 - Post-Infusion,0.30 mg/dL
same,"sUA <6 mg/dL, n (%)",Week 50 - Post-Infusion,3 (100%)
same,"Serum Uric Acid, Change from Baseline, Mean (SD)",Week 50 - Pre-Infusion,−12.65 (4.031) mg/dL
same,"Serum Uric Acid, Change from Baseline, Median",Week 50 - Pre-Infusion,-12.65 mg/dL
same,"Serum Uric Acid, Observed, Mean (SD)",Week 50 - Pre-Infusion,0.30 (0.000) mg/dL
same,"Serum Uric Acid, Observed, Median",Week 50 - Pre-Infusion,0.30 mg/dL
same,"sUA <6 mg/dL, n (%)",Week 50 - Pre-Infusion,2 (100%)
same,"Serum Uric Acid, Change from Baseline, Mean (SD)",Week 52/ET,−12.65 (4.031) mg/dL
same,"Serum Uric Acid, Change from Baseline, Median",Week 52/ET,-12.65 mg/dL
same,"Serum Uric Acid, Observed, Mean (SD)",Week 52/ET,0.30 (0.000) mg/dL
same,"Serum Uric Acid, Observed, Median",Week 52/ET,0.30 mg/dL
same,"sUA <6 mg/dL, n (%)",Week 52/ET,2 (100%)
